Test results from patent US20030104443A1, “AFAP sequences, polypeptides, antibodies and methods” (University of West Virginia, priority 2001, published 2003).

Tests used:
C3H10T1/2 cells = assay: Immunofluorescence of actin structures after PMA treatment; type: cell-based
Procedure: For PKC activation with PMA, C3H10T1/2 cells were transfected with plasmids encoding AFAP-110. Twenty-four hours after transfections, the cells were serum starved overnight. PMA at 100 nM was used to activate PKC for 60 min. Cells were fixed and permeablized as previously described (Qian et al., 1998, supra). After washing, cells were labeled with BODIPY 650/665 phalloidin (Molecular Probes, Eugene, Oreg.) and 4C3 antibody for 20 min. Cells were washed again and then labeled with ALEXA 488 (Molecular Probes) for 25 min. Cells were washed and mounted on slides with Fluoromount (Fisher, Pittsburgh, Pa.). For serum induction experiments, C3H10T1/2 cells were serum starved overnight, and then serum-complete media was added. Cells on coverslips were washed and fixed at 15-min time points >2 h. Polyclonal antibody F1 and TRITC-labeled anti-rabbit secondary antibody were used to visualize endogenous AFAP-110, with washings as above. BODIPY 650/665 phalloidin was used to visualize actin. A Zeiss LSM 510 microscope (Thornwood, N.Y.) was used to gather images, which were recolored from grayscale. Scale bars were generated and inserted by LSM 510 software (Carl Zeiss, Thornwood, N.Y.).
Immunofluorescence labeling and imaging was carried out as described. C3H10T1/2 cells expressing AFAP-110 were treated with either 100 nM PMA (A1-A3) or 100 nM 4α-PDD (A4-A6) for 15 min after overnight serum starvation. AFAP-110 is represented in red (A1 and A4), whereas actin is represented in green (A2 and A5). (A3 and A6) Overlap images of AFAP-110 and actin. Arrows indicate colocalization of AFAP-110 with dynamic actin structures: white arrows, filopodia; gray arrows, lamellipodia; black arrows, actin filaments in the top panel and disrupted actin filaments/rosettes in the bottom panel. […] Immunofluorescence labeling and imaging were carried out as described in Experimental Procedures. C3H10T1/2 cells coexpressing GFP-AFAP-110 (B1) and myristoylated, Flag-tagged PKC were labeled to show Flag-tagged PKC (B2) and actin (B3). Arrows indicate colocalization of AFAP-110 with dynamic actin structures: white arrows label filopodia and black arrows label lamellipodia. […] Immunofluorescence labeling and imaging were carried out as described. C3H10T1/2 cells were transfected with pCMV-GFP-AFAP-110 (C1-C6) and pCMV-GFP-AFAP^Δ180-226 (C7-C9). PMA at 100 nM was used to stimulate the cells for 1 h. C1, C4, and C7; green GFP fusion protein images; C2, C5, and C8; X actin images; C3, C6, and C9, overlap images of GFP fusion protein and actin images.

[1] = test system: AFAP-110 in C3H10T1/2 cells; assay: Phosphoamino acid analysis of AFAP-110 after PMA treatment; type: cell-based; conditions: 100 nM PMA, 15 min; relative to 4α-PDD treatment; densitometry
Procedure: (1, PKCα (0.5 μg); 2, PKCα (0.5 μg)+rAFAP-110 (10 μg); 3, rAFAP-110 (10 μg)). Data are representative of three experiments. […] C3H10T1/2 cells were serum-starved in phosphate-free media supplemented with radiolabeled ^32P-orthophosphate overnight and treated with 100 nM PMA, 100 nM 4α-PDD, or DMSO, the vehicle used. Cells were lysed after 15 min and AFAP-110 was immunoprecipitated using the antibody F1. Radiolabeled AFAP-110 was isolated by SDS-PAGE and subjected to phosphoamino acid analysis.
To test whether AFAP-110 could be phosphorylated in cells in response to PKC activation in vivo, serum-starved C3H10T1/2 fibroblasts labeled with ^32P-orthophosphate were stimulated with 100 nM PMA for 15 min to activate PKC. Cos-1 cells were maintained and transfected as previously described (Guappone and Flynn, 1997, supra). C3H10T1/2 cells were cultured as previously described (Qian et al., 2000, supra). Transient transfections of C3H10T1/2 cells were carried out using SuperFect (QIAGEN, Santa Clarita, Calif.) as previously described (Qian et al., 2000, supra).
Phosphoamino Acid Analysis C3H10T1/2 cells were grown to 60% confluence in 100-mm culture dishes, serum starved overnight, and then stimulated with 100 nM PMA or 100 nM 4α-PDD for 15 min. […] Relative intensity compared with background of radiation from spots was quantitated with ImageQuant software (Molecular Dynamics, Sunnyvale, Calif.).

[2] = after treatment with 100 nM PMA

## CCCCCCCCCCCCCC(=O)O[C@@H]1[C@@H](C)[C@@]2(O)[C@@H](C=C(CO)C[C@]3(O)C(=O)C(C)=C[C@@H]23)[C@@H]2C(C)(C)[C@]12OC(C)=O [PMA]
C3H10T1/2 cells; 100 nM PMA
  time in which the changes occur: ≤ 15 min
C3H10T1/2 cells; 100 nM PMA, serum-starved cells expressing AFAP-110
  actin structures upon PMA treatment: Lamellipodia, filopodia, and rosettes appear
C3H10T1/2 cells; [2]
  time by which cells completely reverted to quiescent phenotype: ≤ 6 h
  time by which changes largely revert: ≤ 2 h
[1]
  increase in phosphoserine of AFAP-110: 3.9 fold
  increase in phosphothreonine of AFAP-110: 5.7 fold
